From PMC4888613, “Antifilarial activity of diterpenoids from Taxodium distichum” (Parasites & Vectors, 2016)
Values joined by “and” are separate entries in the source; they are usually repeats but may differ in a detail not shown here. Equal entries are not always repeated. “Also recorded” adds a separate entry of the source. Where two headings read alike, the source gives them in different places.

Experiments:
[1] = system: Brugia malayi adult worms (AW); test: In vitro motility assay on adult female worms; type: cell-based; conditions: for IC50: read-out: IC50 for AW in MA
Procedure: (§1) Microfilariae and adult worms were harvested from p.c. of the M. unguiculatus harbouring approximately 5–6 month-old B. malayi infection. The parasites were washed thoroughly with HBSS (pH 7.2) containing antibiotics (penicillin: 100 U/ml; streptomycin: 100 μg/ml) and used for the present study.
(§2) Motility and 3-(4,5-dimethylthiazol-2-yl)-2,5 diphenyltetrazolium bromide (MTT; Sigma-Aldrich, USA) reduction assays that indicate viability of the parasites were used. Test samples and ivermectin (purity 95 %; Sigma-Aldrich, USA) were dissolved in dimethyl sulfoxide (DMSO; Sigma-Aldrich, USA); the final concentration of DMSO in the incubation medium Hanks Balanced Salt Solution (HBSS; Sigma-Aldrich, USA) containing 100 U/ml penicillin and 100 μg/ml streptomycin (Sigma-Aldrich, USA), was kept ≤ 0.1 %. Diethylcarbamazine-citrate (DEC-C; purity 100 %; Sigma-Aldrich, USA) solution was prepared in sterile distilled water. HBSS containing DMSO (≤ 0.1 %) alone was used as negative control.
(§3) In vitro efficacy of the test agents and reference drugs was assessed on mf (40–50 mf/100 μl/well) in a 96-well cell culture plate (Nunc, Denmark) and on adult female worms (1 worm/ml/well) in a 48-well plate (Nunc, Denmark). The assays were run in triplicates.
(§4) Motility assay using mf and adult worms was carried out as described elsewhere. Changes in parasite motility was assessed under a microscope and scored as: 0 = dead (100 %); 1-4 = loss of motility (1 = 75 %; 2 = 50 %; 3 = 25 %; and 4 = no loss of motility). The experiment was repeated twice.
(§5) IC50 and CC50 of the test agents were determined using the method described elsewhere. […] The experiments were repeated twice.
(§6) Data were transferred to a graphic program (MS Excel) and IC50 and CC50 were calculated by linear interpolation between the two concentrations above and below 50 % inhibition.

CC50 cytotoxicity assay = type: cell-based, African green monkey; conditions: African green monkey
Procedure: (§7) The assay was run in replicates in each of the two independent experiments.
as §6

[2] = system: Brugia malayi microfilariae (Mf); test: In vitro motility assay on microfilariae; type: cell-based; conditions: for IC50: read-out: IC50 for Mf in MA
Procedure: as §1, §2, §3, §4, §5, §6

[3] = system: Brugia malayi adult worms (AW); test: MTT reduction assay on adult female worms; type: cell-based; conditions: for inhibition at 125 µg/mL: Brugia malayi, read-out: Mean % inhibition in MTT reduction by AW
Procedure: as §2, §3
MTT-reduction assay was carried out using adult worms as described elsewhere. The viability of the treated worms was assessed by calculating per cent inhibition in MTT-reduction potential of the treated worms over DMSO treated control parasites. A hundred percent inhibition in motility of female parasites or mf and or ≥ 50 % inhibition in MTT-reduction potential of the treated female parasites were considered to indicate positive antifilarial activity.
as §5

Brugia malayi [4] = test: B. malayi-M. unguiculatus model (primary screening, intraperitoneal adult worm transplant); type: in vivo, Meriones unguiculatus; conditions: for Effect on mf in peritoneal cavity / Sterilised female worm count / Worms recovered, Total / Sterilised female worms (%) (embryostatic activity) / Total worms, % reduction over untreated (macrofilaricidal activity): doses as in Table 2; for Sterilised female worm count / Worms recovered, Total / Worms recovered, Female / Worms recovered, Male: mean ± SD; for Sterilised female worm count / Worms recovered, Total / Worms recovered, Female / Worms recovered, Male / Sterilised female worms (%) (embryostatic activity) / Total worms, % reduction over untreated (macrofilaricidal activity): day 56 p.i.t.; for Worms recovered, Total: A001: the 5 of 6 animals without worms; for Worms recovered, Female / Worms recovered, Male: x 5 days: A001 500 mg/kg p.o., K003/K004 100, ivermectin 1, DEC-C 25 mg/kg s.c.; for Effect on adult worms: ivermectin 1 mg/kg
Description: (§8) Meriones unguiculatus bearing intraperitoneally instilled adult worms and M. coucha inoculated with B. malayi L3 and showing microfilaremia in peritoneal cavity on day 3 post adult worm transplantation (p.a.t.) and progressive rise in microfilaraemia in peripheral circulation from day 120–180 post larval inoculation (p.l.i.), were employed as primary and secondary screening models, respectively, for assaying the antifilarial efficacy of the test agents.
(§9) The test agents were pulverised to fine powder and suspended in 1 % gum acacia/0.1 % Tween-80 in sterile distilled water. DEC-C and ivermectin were prepared in distilled water and ≤ 0.1 % Tween-80, respectively. The suspensions/solutions of the agents were prepared daily before administration to the animals.
(§10) Compounds K003 and K004 were given at 100 mg/kg body weight, subcutaneously (s.c.). The reference drugs DEC-C and ivermectin were administered to M. unguiculatus at 25 and 1 mg/kg body weight, respectively, while the M. coucha model received DEC-C at 50 mg/kg, body weight. […] Infected animals treated with vehicle only were used as control.
Male M. unguiculatus 8–10 weeks old (40–45 g) transplanted intraperitoneally with freshly isolated adult worms from B. malayi-infected M. unguiculatus were used for primary screening of test agents. On day 3 p.a.t., the peritoneal fluid was aspirated and checked for the presence of mf. The treatment was started on day 7/8 p.a.t. and continued for 5 consecutive days. On day 7/8 post-initiation of treatment (p.i.t) and thereafter at fortnightly intervals, the peritoneal fluid was examined under microscope to assess the condition of mf. All animals were killed on day 56 p.i.t. and parasites were collected from p.c., counted and examined for their viability and motility under microscope.
(§11) As a standard practice (following an accepted protocol) all the M. unguiculatus and M. coucha treated with test agents and vehicle were observed daily for their general health and behaviour (cage side observations) throughout the course of treatment and thereafter till termination of the experiment.
(§12) Microfilaricidal efficacy of the test agents was evaluated at each time point p.i.t and expressed as percent change in mf count over the pretreatment level.
(§13) Macrofilaricidal/adulticidal efficacy of the agents was assessed by calculating percent reduction in adult worm recovery in treated animals over untreated animals. Embryostatic/embryotoxic effect of agents was assessed by examining the uterine contents of female worms using the method described elsewhere and the percent of sterilised worms was determined from total female worms recovered from the treated and control animals.

Brugia malayi [5] = test: B. malayi-M. coucha model (secondary screening, L3 induced infection); type: in vivo, Mastomys coucha; conditions: for Macrofilaricidal activity (reduction in adult worm recovery over untreated control): DEC-C 50 mg/kg s.c. x 5 days, animals killed day 91 p.i.t.; for Sterile female worms: of surviving female parasites, day 91 p.i.t., control about 28 %; for Course of microfilaraemia: up to day 91 p.i.t.; for Regression line of microfilarial counts against days: trend of post-treatment microfilaraemia in Fig. 5a
Description: as §8, §9, §10
Mastomys coucha harbouring 5–7 month-old (L3 induced) B. malayi infection and showing progressive rise in microfilaraemia was used as secondary screening model. Mf count was recorded in peripheral blood (10 μl tail blood) just before initiation of the treatment (day 0), on day 7/8 and thereafter at weekly intervals till day 91 p.i.t. The animals were killed on day 91 p.i.t.
as §11, §12, §13
Statistical analyses were carried out using GraphPad Prism 3.0 software. Results were expressed as the mean ± standard deviation (S.D.) of data obtained from 4–6 animals in two experiments. The data were analysed by Student’s ‘t’ test and one-way ANOVA followed by Tukey’s multiple comparison test, as appropriate. Differences with P < 0.05 were considered significant. The microfilaricidal efficacy of antifilarials was determined by comparing the slopes of control, K003 and DEC treated groups. The slopes of the regression line were compared by standard procedure.

VERO Cell line C1008 = test: CC50 cytotoxicity assay; type: cell-based, African green monkey; conditions: reference drugs, values in μM
Procedure: as §7, §6

[6] = 100 % reduction in motility (death) of adult worms
[7] = Brugia malayi, 50 % inhibition in motility of adult worms
[8] = VERO C1008 cells (African green monkey kidney cells), concentration at which 50 % of VERO cells are killed, read-out: CC50
[9] = 100 % reduction in motility (death) of microfilariae
[10] = Brugia malayi, 50 % inhibition in motility of microfilariae
[11] = over DMSO control, test conc.: 500 μg/ml extract/fractions, 125 μg/ml compounds, 1000 μM DEC, 10/20 μM ivermectin
[12] = Brugia malayi, reference drugs, values in μM

Compound	LC100 for AW in MA [1, 6] [µg/mL]	IC50 [1, 7] [µg/mL]	CC50 (CC50 cytotoxicity assay; [8]) [µg/mL]	LC100 for Mf in MA [2, 9] [µg/mL]	IC50 [2, 10] [µg/mL]	inhibition at 125 µg/mL [3, 11] [%]	Effect on mf in peritoneal cavity (Brugia malayi [4])	Sterilised female worm count (Brugia malayi [4])	Worms recovered, Total (Brugia malayi [4])	Worms recovered, Female (Brugia malayi [4])	Worms recovered, Male (Brugia malayi [4])	Macrofilaricidal activity (reduction in adult worm recovery over untreated control) (Brugia malayi [5])	Sterile female worms (Brugia malayi [5]) [%]	Course of microfilaraemia (Brugia malayi [5]; peripheral blood)	Regression line of microfilarial counts against days (Brugia malayi [5])	Mean % inhibition in MTT reduction by AW [3, 11] [%]	Sterilised female worms (%) (embryostatic activity) (Brugia malayi [4])	Total worms, % reduction over untreated (macrofilaricidal activity) (Brugia malayi [4])	Effect on adult worms (Brugia malayi [4]; DEC-C 25 mg/kg s.c. x 5 days)	LC100 for AW in MA ([1]; reference drugs, values in μM) [µM]	further results
C=C1CCC2C(C)(C)C(OC(C)=O)CC[C@@]2(C)C1CC/C(C)=C/C(=O)O (some centres unmarked) [Compound K001, 3-Acetoxylabda-8(20),13-diene-15-oic acid]	62.50	41.2	697	250	88.4	76.9	–	–	–	–	–	–	–	–	–	–	–	–	–	–	–
CC[C@H](CC[C@@H](C)[C@H]1CC[C@H]2[C@@H]3CC=C4C[C@@H](O)CC[C@]4(C)[C@H]3CC[C@]12C)C(C)C [Compound K002, Beta-sitosterol]	> 250	–	–	> 250	–	–	–	–	–	–	–	–	–	–	–	–	–	–	–	–	IC50 ([1]; Brugia malayi): > 250 µg/mL; IC50 ([2]; Brugia malayi): > 250 µg/mL; inhibition at 125 µg/mL [3]: 38%
C=C1CCC2C(C)(C)CCC[C@@]2(C)C1CC/C(C)=C/C(=O)O (some centres unmarked) [Compound K003, labda-8(20),13-diene-15-oic acid]	125	74.3	180	31.25	18.6	> 80	ineffective against mf	8.00 ± 0.71	8.40 ± 1.14	8.00 ± 0.71	0.40 ± 0.89	~ 54% and 53.94%	> 36	had more or less no effect on microfilaraemia till day 42 p.i.t., but thereafter microfilaraemia stopped increasing as compared to control; also recorded: stopped any further rise in microfilaraemia after day 42 p.i.t	183.65 ± 0.82 days	82.05	–	–	–	–	Reduction in motility of adult worms ([1]; in vitro): 100%; Reduction in motility of mf ([2]; in vitro): 100%
CCN(CC)C(=O)N1CCN(C)CC1 [DEC-C, Diethylcarbamazine-citrate]	–	–	–	–	–	–	did not affect mf count	0.60 ± 0.89	9.20 ± 1.48	6.60 ± 1.14	2.60 ± 0.55	around 26.47%	20	gradually increased and relapsed by day 49 p.i.t.; the count further increased rapidly and crossed the pretreatment level by day 56 p.i.t.	-21.04 + 2.95 days	–	(7.86 ± 11.41) %	(22.03) %	mild macrofilaricidal activity	1000	Effect on female reproductive potential (Brugia malayi [4]; DEC-C 25 mg/kg s.c. x 5 days): did not affect mf count or female reproductive potential; Reduction in microfilarial count on day 7/8 p.i.t. (Brugia malayi [5]; DEC-C 50 mg/kg, peripheral blood): > 80%; IC50 [1, 12]: 315 µM; CC50 (CC50 cytotoxicity assay): 9000 µM; IC50 [2, 12]: 297 µM; LC100 for Mf in MA ([2]; reference drugs, values in μM): 500 µM
ivermectin	–	–	–	–	–	–	did not affect mf in p.c.	2.75 ± 0.96	–	6.25 ± 1.50	2.75 ± 0.96	–	–	–	–	5.80	(44.29 ± 5.15) %	(22.43) %	mild but not statistically significant effect on adult worms	5	Sterilised female worms (%) (embryostatic activity) (Brugia malayi [4]; listed as ivermectin): 44%; IC50 ([1]; reference drugs, values in μM): 3.05 µM; CC50 (VERO Cell line C1008): 250 µM; LC100 for Mf in MA ([2]; reference drugs, values in μM): 2.5 µM; IC50 ([2]; reference drugs, values in μM): 1.57 µM
